Marks after values point to notes of the source that are not given here.
How the values were obtained:
caMC4R [1] = experiment: Intracellular cAMP signaling (radioimmunoassay); type: cell-based, topmouth culter (Culter alburnus); conditions: for stimulation of intracellular cAMP, in words / EC50 / Rmax (cAMP): HEK293T cells; for EC50: cAMP RIA; for EC50 / Rmax (cAMP): mean ± SEM of at least three independent experiments; for Rmax (cAMP): hMC4R = 100
caMC4R [2] = experiment: Competitive ligand binding (125I-NDP-MSH displacement); conditions: displacement of 125I-NDP-MSH; for IC50: HEK293T cells, mean ± SEM of at least three independent experiments

EC50 (caMC4R [1]; caMC4R) [nM] | IC50 (caMC4R [2]) [nM] | Molecule | stimulation of intracellular cAMP, in words (caMC4R [1]; caMC4R) | Rmax (cAMP) (caMC4R [1]; caMC4R) | binding affinity, in words (caMC4R [2]) | EC50 and Rmax compared with hMC4R, in words (caMC4R [1]; caMC4R versus hMC4R, cAMP) | allosteric agonism, in words (caMC4R [1]; caMC4R, concluded from binding and cAMP data)
5.76 ± 1.62 | 442 ± 65.4 | CSCC[C@H](NC(=O)[C@H](CCCNC(=N)N)NC(=O)[C@H](Cc1ccc(O)cc1)NC(=O)[C@@H]1CCCN1C(=O)CNC(=O)[C@H](CCC(=O)O)NC(=O)[C@H](CC(=O)O)NC(=O)[C@H](CCCCN)NC(=O)[C@H](CCCCN)NC(=O)[C@H](CCC(=O)O)NC(=O)[C@H](C)N)C(=O)N[C@@H](CCC(=O)O)C(=O)N[C@@H](Cc1c[nH]cn1)C(=O)N[C@@H](Cc1ccccc1)C(=O)N[C@@H](CCCNC(=N)N)C(=O)N[C@@H](Cc1c[nH]c2ccccc12)C(=O)NCC(=O)N[C@@H](CO)C(=O)N1CCC[C@H]1C(=O)N1CCC[C@H]1C(=O)N[C@@H](CCCCN)C(=O)N[C@@H](CC(=O)O)C(=O)O [β-MSH, β-melanocyte-stimulating hormone] | dose-dependently increased intracellular cAMP levels | 167.74 ± 27.91% | significantly higher affinity to β-MSH than hMC4R |  | 
0.44 ± 0.24 | 4.87 ± 1.8 | [Nle^4, D-Phe^7]-α-MSH [NDP-MSH] | dose-dependently increased intracellular cAMP levels | 84.48 ± 8.28% |  |  | 
75.7 ± 10.6 |  | O=C(N[C@H](Cc1ccc(Cl)cc1)C(=O)N1CCC(Cn2cncn2)(C2CCCCC2)CC1)[C@H]1Cc2ccccc2CN1 [THIQ, N-[(3R)-1,2,3,4-Tetrahydroisoquinolinium-3-ylcarbonyl]-(1R)-1-(4-chlorobenzyl)-2-[4-cyclohexyl-4-(1H-1,2,4-triazol-1-ylmethyl)piperidin-1-yl]-2-oxoethylamine] | dose-dependently increased intracellular cAMP levels | 39.73 ± 1.37^b % | able to displace the ^125I-NDP-MSH bound with caMC4R | EC50 was significantly increased and Rmax was significantly decreased | not an allosteric agonist at caMC4R

From paper PMC7456811, “Regulation of Melanocortin-4 Receptor Pharmacology by Two Isoforms of Melanocortin Receptor Accessory Protein 2 in Topmouth Culter (Culter alburnus)” (Frontiers in Endocrinology, 2020)
